Our source for the IC50 and Ki values is patent publication US8912221B2, “Biaryl amide derivatives” (Hoffmann-La Roche Inc., priority 2010, dated 2014).

In test [1] the target is T1, Bradykinin-1 receptor (Homo sapiens (Human), UniProt P46663). The test can be described thus: Calcium Mobilization Assay. Type of test: cell-based. Particulars: GeneBLAzer Bradykinin (B1)-NFAT-bla CHO-K1 cells; antagonist activity, FLIPR; read-out: Ca mobilization IC50. The method, then:
Calcium Mobilization Assay
GeneBLAzer® Bradykinin (B1)-NFAT-bla CHO-K1 cells (from Invitrogen) stably overexpressing the human bradykinin 1 receptor were cultured in DMEM (high glucose) supplemented with 10% dialysed FBS, 1% NEAA (non essential amino acids) 1% penicillin/streptomycin, 1% G418 and 0.1 mg/ml zeocin.
For the assay cells were grown overnight in 384-well black clear flat bottom polystyrene plates (Costar) at 37° C. at 5% CO2. After washing with DMEM, 20 mM Hepes, 2.5 mM probenecid, 0.1% BSA (DMEM assay buffer) cells were loaded with 4 μM Fluo-4 in the same DMEM assay buffer for 2 hours at 30° C. Excess dye was removed and cells were washed with DMEM assay buffer. 384-well compound plates were prepared with DMEM assay buffer/0.5% DMSO with or without various concentrations of test compounds. Usually compounds were tested for agonist and antagonist activity.
Test compounds were added to the assay plate and agonist activity was monitored as fluorescence for 80 seconds with a FLIPR (488 nm excitation; 510-570 nm emission; Molecular Devices). […] Increases in intracellular calcium are reported as maximum fluorescence after agonist exposure minus basal fluorescence before exposure. Antagonist activity is indicated as inhibitor concentration required for 50% inhibition of specific calcium increases.
(In general: A change in cytosolic calcium serves as a functional read-out for many receptors and channels.)

Test [2] has as its target T1, Bradykinin-1 receptor. The test can be described thus: Receptor Binding Assay. As to conditions: membranes from CHO-K1 cells overexpressing Bradykinin-1 receptor; 6 nM [3H]Kallidin (Des Arg10, Leu9); read-out: B1R Binding Ki. The method, then:
Binding assays were done with membranes from CHO-K1 cells overexpressing Bradykinin-1 receptor.
For binding, Bradykinin-1 receptor antagonist compounds were added in various concentrations in 50 mM Tris pH 7.4, 5 mM MgCl2 together with 6 nM Kallidin (Des Arg^10, Leu^9), [3,4-Prolyl-3,4-^3H(N)] (PerkinElmer, 1.85-4.44 TBq/mmol) to 40 μg membrane protein containing approximately 1 fmol Bradykinin-1 receptor and incubated for 15 min at 27° C. To determine non-specific binding 10 μM Lys-(Des-Arg^9)-Bradykinin (Bachem) was added. Membranes were harvested through GF/B (glass fiber filter; PerkinElmer) plates, equilibrated with 0.5% polyethylenimine, air dried at 50° C. for 2 hr. Radioactivity was determined by counting in a topcounter (NXT Packard). Specific binding was defined as total binding minus nonspecific binding and typically represents about 90-95% of the total binding. Antagonist activity is expressed as Ki: inhibitor concentration required for 50% inhibition of specific binding corrected for the concentration of the radioligand.

The structures appear in SMILES notation.

T1 sequence (P46663 whole entry): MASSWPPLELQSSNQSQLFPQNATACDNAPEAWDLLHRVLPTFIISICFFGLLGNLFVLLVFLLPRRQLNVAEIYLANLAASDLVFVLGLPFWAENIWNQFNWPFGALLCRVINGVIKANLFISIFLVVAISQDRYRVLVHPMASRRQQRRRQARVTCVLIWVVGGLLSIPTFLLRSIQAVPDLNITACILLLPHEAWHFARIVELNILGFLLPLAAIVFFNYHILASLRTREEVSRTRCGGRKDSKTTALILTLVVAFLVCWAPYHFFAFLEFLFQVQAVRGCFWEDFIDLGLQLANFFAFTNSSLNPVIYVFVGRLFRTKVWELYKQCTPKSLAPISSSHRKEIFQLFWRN

As to `COc1ncc(C(=O)NC2(C(=O)N[C@H](C)c3ccc(-c4cc(Cl)cc(F)c4-c4noc(C)n4)cc3F)COC2)cn1` [Example 31, 2-Methoxy-pyrimidine-5-carboxylic acid (3-{(R)-1-[5′-chloro-3,3′-difluoro-2′-(5-methyl-[1,2,4]oxadiazol-3-yl)-biphenyl-4-yl]-ethylcarbamoyl}-oxetan-3-yl)-amide], the IC50 (usually the concentration needed to halve the response being measured) on Bradykinin-1 receptor [1] was below 0.032 nM. Moreover, on Bradykinin-1 receptor [2], the inhibition constant (Ki) (commonly a measure of affinity in units of concentration, obtained from inhibition or displacement) is 0.6 nM.

As for `COc1cc(C(=O)NC2(C(=O)N[C@H](C)c3ccc(-c4cc(Cl)cc(Cl)c4OCC(F)F)cc3F)COC2)on1` [Example 37, 3-Methoxy-isoxazole-5-carboxylic acid (3-{(R)-1-[3′,5′-dichloro-2′-(2,2-difluoro-ethoxy)-3-fluoro-biphenyl-4-yl]-ethylcarbamoyl}-oxetan-3-yl)-amide], at Bradykinin-1 receptor [1], the IC50 was found to be 0.4 nM. The Ki on Bradykinin-1 receptor [2] was 3.5 nM.

For `Cc1cc(C(=O)NC2(C(=O)N[C@H](C)c3ccc(-c4cc(Cl)cc(F)c4-c4nnn(C)n4)cc3F)COC2)on1` [Example 23, 3-Methyl-isoxazole-5-carboxylic acid (3-{(R)-1-[5′-chloro-3,3′-difluoro-2′-(2-methyl-2H-tetrazol-5-yl)-biphenyl-4-yl]-ethylcarbamoyl}-oxetan-3-yl)-amide], the half-inhibitory concentration (IC50) on Bradykinin-1 receptor [1] was 0.1 nM. Moreover, the Ki at Bradykinin-1 receptor [2] came out at 1 nM.

As for `COc1cc(C(=O)NC2(C(=O)N[C@H](C)c3ncc(-c4cc(Cl)cc(F)c4-c4noc(C)n4)cc3F)COC2)on1` [Example 14, 3-Methoxy-isoxazole-5-carboxylic acid [3-((R)-1-{5-[5-chloro-3-fluoro-2-(5-methyl-[1,2,4]oxadiazol-3-yl)-phenyl]-3-fluoro-pyridin-2-yl}-ethylcarbamoyl)-oxetan-3-yl]-amide], the half-inhibitory concentration (IC50) on Bradykinin-1 receptor [1] is 0.2 nM. The Ki on Bradykinin-1 receptor [2] was found to be 1.4 nM.

Consider `C[C@@H](NC(=O)C1(NC(=O)c2ccno2)COC1)c1ncc(-c2cc(Cl)cc(Cl)c2OCC(F)F)cc1F` [Example 10, Isoxazole-5-carboxylic acid [3-((R)-1-{5-[3,5-dichloro-2-(2,2-difluoro-ethoxy)-phenyl]-3-fluoro-pyridin-2-yl}-ethylcarbamoyl)-oxetan-3-yl]-amide], for which the IC50 on Bradykinin-1 receptor [1] was determined as 3.3 nM. In addition, the Ki at Bradykinin-1 receptor [2] worked out at 4.7 nM.

Take `Cc1cc(C(=O)NC2(C(=O)N[C@H](C)c3ncc(-c4cc(Cl)cc(F)c4-c4nnn(C)n4)cc3F)COC2)on1` [Example 20, 3-Methyl-isoxazole-5-carboxylic acid [3-((R)-1-{5-[5-chloro-3-fluoro-2-(2-methyl-2H-tetrazol-5-yl)-phenyl]-3-fluoro-pyridin-2-yl}-ethylcarbamoyl)-oxetan-3-yl]-amide]: the IC50 on Bradykinin-1 receptor [1] stood at 0.4 nM. In addition, the inhibitory constant (Ki) at Bradykinin-1 receptor [2] turned out to be 1.6 nM.

Turning to `Cc1nc(-c2c(F)cc(Cl)cc2-c2cnc([C@@H](C)NC(=O)C3(NC(=O)c4cccnc4)COC3)c(F)c2)no1` [Example 30, N-[3-((R)-1-{5-[5-Chloro-3-fluoro-2-(5-methyl-[1,2,4]oxadiazol-3-yl)-phenyl]-3-fluoro-pyridin-2-yl}-ethylcarbamoyl)-oxetan-3-yl]-nicotinamide], the half-inhibitory concentration (IC50) at Bradykinin-1 receptor [1] was 0.2 nM. Further, at Bradykinin-1 receptor [2], the Ki was 1.3 nM.

In the case of `COc1cc(C(=O)NC2(C(=O)N[C@H](C)c3ccc(-c4cc(Cl)cc(F)c4-c4nnn(C)n4)cc3F)COC2)on1` [Example 43, 3-Methoxy-isoxazole-5-carboxylic acid (3-{(R)-1-[5′-chloro-3,3′-difluoro-2′-(2-methyl-2H-tetrazol-5-yl)-biphenyl-4-yl]-ethylcarbamoyl}-oxetan-3-yl)-amide], at Bradykinin-1 receptor [1], the IC50 is 0.1 nM. Further, at Bradykinin-1 receptor [2], the Ki turned out to be 1.4 nM.

Consider `COC(=O)c1c(Cl)cccc1-c1ccc([C@@H](C)NC(=O)C2(NC(=O)c3cc(C)no3)COC2)c(F)c1` [Example 13, 3-Chloro-3′-fluoro-4′-[(R)-1-({3-[(3-methyl-isoxazole-5-carbonyl)-amino]-oxetane-3-carbonyl}-amino)-ethyl]-biphenyl-2-carboxylic acid methyl ester], for which the IC50 on Bradykinin-1 receptor [1] was determined as 0.04 nM. Further, the Ki at Bradykinin-1 receptor [2] is 1 nM.

On to `COCC(=O)NC1(C(=O)N[C@H](C)c2ncc(-c3cc(Cl)cc(Cl)c3OCC(F)F)cc2F)COC1` [Example 42, 3-(2-Methoxy-acetylamino)-oxetane-3-carboxylic acid ((R)-1-{5-[3,5-dichloro-2-(2,2-difluoro-ethoxy)-phenyl]-3-fluoro-pyridin-2-yl}-ethyl)-amide], for which, at Bradykinin-1 receptor [1], the IC50 came out at 201 nM. In addition, on Bradykinin-1 receptor [2], the Ki was 119 nM.

Turning to `Cc1nc(-c2c(F)cc(Cl)cc2-c2cnc([C@@H](C)NC(=O)C3(NC(=O)c4cncc(N)c4)COC3)c(F)c2)no1` [Example 28, 5-Amino-N-[3-((R)-1-{5-[5-chloro-3-fluoro-2-(5-methyl-[1,2,4]oxadiazol-3-yl)-phenyl]-3-fluoro-pyridin-2-yl}-ethylcarbamoyl)-oxetan-3-yl]-nicotinamide], the 50% inhibitory concentration (IC50) at Bradykinin-1 receptor [1] is 0.1 nM. The Ki on Bradykinin-1 receptor [2] worked out at 1.4 nM.

As to `COCC(=O)NC1(C(=O)N[C@H](C)c2ncc(-c3cc(Cl)cc(F)c3-c3noc(C)n3)cc2F)COC1` [Example 17, 3-(2-Methoxy-acetylamino)-oxetane-3-carboxylic acid ((R)-1-{5-[5-chloro-3-fluoro-2-(5-methyl-[1,2,4]oxadiazol-3-yl)-phenyl]-3-fluoro-pyridin-2-yl}-ethyl)-amide], at Bradykinin-1 receptor [1], the IC50 was 26.6 nM. Moreover, the inhibition constant (Ki) at Bradykinin-1 receptor [2] was 25 nM.

In the case of `COC(=O)c1c(Cl)cccc1-c1ccc([C@@H](C)NC(=O)C2(NC(=O)c3ccno3)COC2)c(F)c1` [Example 12, 3-Chloro-3′-fluoro-4′-[(R)-1-({3-[(isoxazole-5-carbonyl)-amino]-oxetane-3-carbonyl}-amino)-ethyl]-biphenyl-2-carboxylic acid methyl ester], the IC50 at Bradykinin-1 receptor [1] was found to be 0.1 nM. The inhibition constant (Ki) at Bradykinin-1 receptor [2] amounted to 0.8 nM.

Turning to `COc1ncc(C(=O)NC2(C(=O)N[C@H](C)c3ncc(-c4cc(Cl)cc(F)c4-c4noc(C)n4)cc3F)COC2)cn1` [Example 15, 2-Methoxy-pyrimidine-5-carboxylic acid [3-((R)-1-{5-[5-chloro-3-fluoro-2-(5-methyl-[1,2,4]oxadiazol-3-yl)-phenyl]-3-fluoro-pyridin-2-yl}-ethylcarbamoyl)-oxetan-3-yl]-amide], on Bradykinin-1 receptor [1], the half-maximal inhibitory concentration (IC50) came to 0.1 nM. Further, the Ki on Bradykinin-1 receptor [2] is 1.1 nM.

Turning to `COc1ncc(C(=O)NC2(C(=O)N[C@H](C)c3ncc(-c4cc(Cl)cc(F)c4-c4nnn(C)n4)cc3F)COC2)cn1` [Example 36, 2-Methoxy-pyrimidine-5-carboxylic acid [3-((R)-1-{5-[5-chloro-3-fluoro-2-(2-methyl-2H-tetrazol-5-yl)-phenyl]-3-fluoro-pyridin-2-yl}-ethylcarbamoyl)-oxetan-3-yl]-amide], the concentration for half-maximal inhibition (IC50) at Bradykinin-1 receptor [1] was 0.2 nM. Further, the inhibitory constant (Ki) on Bradykinin-1 receptor [2] is 1.2 nM.

On to `Cc1nc(-c2c(F)cc(Cl)cc2-c2cnc([C@@H](C)NC(=O)C3(NC(=O)C(F)(F)F)COC3)c(F)c2)no1` [Example 2, 3-(2,2,2-Trifluoro-acetylamino)-oxetane-3-carboxylic acid ((R)-1-{5-[5-chloro-3-fluoro-2-(5-methyl-[1,2,4]oxadiazol-3-yl)-phenyl]-3-fluoro-pyridin-2-yl}-ethyl)-amide], for which the IC50 at Bradykinin-1 receptor [1] came out at 1.2 nM. Further, the Ki on Bradykinin-1 receptor [2] is 11.9 nM.
